The values below come from publication PMC12293736, “Discovery of N-(6-Methoxypyridin-3-yl)quinoline-2-amine Derivatives for Imaging Aggregated α-Synuclein in Parkinson’s Disease with Positron Emission Tomography” (Cells, 2025).

Where “and” joins values, the source holds several entries; their conditions need not be identical. Identical values can stand only once. Entries after “also recorded” stand apart in the source; their conditions may differ. Like-named read-outs stand apart in the source and are kept apart here.

The target in series [1] is T1, recombinant α-synuclein fibrils (Homo sapiens, UniProt P37840). In words: photo-crosslinking of α-synuclein fibrils, digestion and LC-MS/MS. As to conditions: UV irradiation, GluC or trypsin digest. The source says: To gain additional insight into the binding site of these molecules, a photoaffinity variant (TZ-CLX) was synthesized containing a diazirine as a photo-crosslinking motif. Closely resembling the 6-substituted lead compounds 7j and 8i, this compound covalently inserts into C-H bonds on nearby residues in the α-synuclein fibril binding site upon irradiation with ultraviolet (UV) light. Using established procedures, the crosslinked fibrils can then be disaggregated, digested using either GluC or trypsin, and analyzed via LC-MS/MS to ascertain residue-level binding information. […] Minor crosslinks were also identified in the N-terminal binding site, primarily via trypsin digestion and corresponding to the peptide EGVVAAAEK (residues 13–21, proximal to site 2, Figure 3). […]
Bottom-up LC-MS/MS Analysis. Peptide mixtures resulting from labeling and digestion were resolubilized in 25 µl of water with 0.1%TFA and analyzed by a Q-Exactive HF mass spectromet er (Thermo Fisher Scientific; Waltham, MA) coupled to a Dionex Ultimate 3000 UHPLC system (Thermo Fisher Scientific; Waltham, MA) equipped with an in- house made 15 ௗcm long fused silica capillary column (75 μm ID), packed with reversed phase Repro-Sil Pure C18-AQ 2.4 μm resin (Dr. Maisch GmbH, Ammerbuch, Germany). […]

For series [2], the target named is T2, LBD-amplified fibrils (α-synuclein) (Homo sapiens, UniProt P37840).
T2 construct: made in house
Put plainly: homologous competitive binding assay of radiotracers, LBD-amplified fibrils. The procedure:
(§1) The binding affinity determination (Kd) was performed using homologous competitive binding assays of radiotracers with recombinant α-synuclein fibrils, LBD-amplified fibrils, PD tissues, and AD brain tissue homogenates. The brain tissue from PD and AD cases was obtained from the Banner Sun Health Research Institute Brain and Body Donation Program of Sun City, Arizona.
(§2) These direct binding assays used a fixed concentration of either recombinant α-synuclein fibrils, LBD-amplified fibrils, PD, AD tissue, or a radioligand ([^11C]7f, [^18F]7j, [^11C]8i and [^125I]8i, [^3H]8i) and varying concentration ranges of the corresponding homologous non-radiolabeled standard reference compound. In brief, various concentrations of corresponding cold compounds were diluted in 30 mM of Tris-HCl at pH 7.4, with 0.1% BSA. The direct binding assay was carried out by mixing (1) recombinant α-synuclein fibrils, LBD-amplified fibrils, PD, or AD tissue; (2) a radioligand ([^11C]7f or [^18F]7j); and (3) various concentrations of corresponding cold compounds, with incubation at 37 °C for 1 h for [^18F]7j and 30 min for [^11C]7f. After incubation, the bound and free radioligands were separated via vacuum filtration through 1.0 µm glass fiber filters in 96-well filter plates (MilliporeSigma, Burlington, MA, USA), followed by three 200 µL washes with ice-cold assay buffer. The filters containing the bound ligand were mixed with 150 µL of Optiphase Supermix scintillation cocktail (PerkinElmer) and counted immediately. All data points were obtained in triplicate. The dissociation constant (Kd) and the maximal number of binding site (Bmax) values were determined by fitting the data to the following equation: bound = (Bmax × [radioligand])/([radioligand] + [unlabeled compound] + Kd) + bottom. This was achieving via non-linear regression using GraphPad Prism software (version 4.0), where (bottom) is the non-specific binding and the [radioligand], [unlabeled compound], and Kd are expressed in nM. The synthesis of the tested compounds is described in the Supporting Information. […]
(§3) c) Direct radioactive competitive binding assay of radiotracers [11C]7f, [ 18 F]7j, [ 11C]8i and [ 125 I]8i and [ 3H]8i Affinity determination (Kd) using direct radioactive competitive binding assay with recombinant α-synuclein fibrils, Banner PD tissues, AD brain tissue homogenates. Brain tissue from PD and AD cases was obtained from the Banner Sun Health Research Institute Brain and Body Donation Program of Sun City, Arizona. […]
(§4) These direct binding assays used a fixed concentration of either α-synuclein fibrils or AD tissue and the radioligand ([11C]7f, [ 18F]7j, [ 11C]8i and [ 125 I]8i, [ 3H]8i ) and varying concentration ranges of corresponding homologous non-radiolabeled standard reference compound. In brief, the standard homologous reference compound was diluted in 30 mM Tris-HCl pH 7.4, 0.1% BSA. Reactions were incubated at 37 °C for 1 h before quantifying bound radioligand.
(§5) Bound and free radioligands were separated by vacuum filtration through 1.0 µm glass fiber filters in 96-well filter plates (Millipore), followed by three 200 µL washes with ice-cold assay buffer. Filtrates containing the bound ligand were mixed with 150 µL of Optiphase Supermix scintillation cocktail (PerkinElmer) and counted immediately. All data points were performed in triplicate. The dissociation constant (Kd) and the maximal number of binding sites (Bmax) values were determined by fitting the data to the equation. […]

Series [3] concerns the target AD brain tissue homogenates. Put plainly: homologous competitive binding assay of radiotracers, AD tissue. More on the design: species or system human. The conditions noted are these: average, NB = no binding. On the procedure:
as §1
These direct binding assays used a fixed concentration of either recombinant α-synuclein fibrils, LBD-amplified fibrils, PD, AD tissue, or a radioligand ([^11C]7f, [^18F]7j, [^11C]8i and [^125I]8i, [^3H]8i) and varying concentration ranges of the corresponding homologous non-radiolabeled standard reference compound. […] The filters containing the bound ligand were mixed with 150 µL of Optiphase Supermix scintillation cocktail (PerkinElmer) and counted immediately. […] The dissociation constant (Kd) and the maximal number of binding site (Bmax) values were determined by fitting the data to the following equation: bound = (Bmax × [radioligand])/([radioligand] + [unlabeled compound] + Kd) + bottom. […]
Bound and free radioligands were separated by vacuum filtration through 1.0 µm glass fiber filters in 96-well filter plates (Millipore), followed by three 200 µL washes with ice-cold assay buffer. […] The dissociation constant (Kd) and the maximal number of binding sites (Bmax) values were determined by fitting the data to the equation. […]

Series [4] can be described thus: PET brain imaging studies in non-human primates. The conditions noted are these: for blood–brain barrier penetration / brain washout kinetics: in words. It counts as in vivo, cynomolgus macaques. The procedure:
All animal experiments were conducted under a research protocol approved by the Washington University Institutional Animal Care and Use Committee (IACUC). The NHP study was conducted in the NHP microPET facility at the Washington University School of Medicine in St. Louis. Three adults male cynomolgus macaques (9.73 ± 0.71 kg) were used in this study. Each animal was fasted for 12 h prior to the PET scans. Anesthesia was induced with an intramuscular injection of ketamine (10–20 mg kg^−1) and glycopyrrolate (0.013–0.017 mg kg^−1) to reduce salivary gland and respiration secretions. The animal was intubated, and anesthesia was maintained at 40–50% N2O and 1.4–2.0% isoflurane/oxygen throughout the procedure. A percutaneous venous catheter was used for the radiotracer injection. During the PET scanning session, the head was positioned supine with the brain in the center of the field of view. The PET scans were performed with a microPET Focus 220 scanner (Concorde/CTI/Siemens Microsystems, Knoxville, TN, USA). A 10 min transmission scan was performed to check the positioning; once confirmed, a 45 min transmission scan was obtained for attenuation correction. Subsequently, a 2 h dynamic emission scan was acquired after the administration of 365.44 ± 26.69 MBq of [^11C]7f, [^11C]8i, or [^18F]7j via the venous catheter. The PET data were collected from 0 to 120 min with the following timeframes: 3 × 1 min, 4 × 2 min, 3 × 3 min, and […]. The PET images were reconstructed using a filtered back projection method into a volume size of 128 × 128 × 95 and a voxel size of 1.85 × 1.85 × 0.796 mm^3, with all corrections (scatter, decay, random, normalization, etc.) applied. The dynamic PET images were motion-corrected and then co-registered to previous acquired structural MPRAGE MR images. The INIA19 primate brain and atlas (https://www.nitrc.org/projects/inia19/, accessed on 2 August 2023) were then co-registered to the MR images, so as to obtain the regional time−activity curves (TACs) in the regions of interests (ROIs). The radioactivity uptake was normalized using the body weight and the injected dose to obtain the standardized uptake values (SUVs). A voxel-wise reference Logan plot was performed using the cerebellum as the reference region to obtain the distribution volume ratio (DVR), with a linear time range of 30 min to 120 min:(1) ∫0t Ctτdτ/Ctt=DVR∫0t Crτdτ/Ctt+β
Here, Cr(t) is the regional time activity curve (TAC) of the reference tissue, Ct(t) is the pixelwise time activity curves of the target tissue tracer concentration measured via PET, and DVR is the distribution volume ratio of the target to the reference tissue.
The image processing was performed using MIAKAT in MATLAB (R2023a, The MathWorks, Inc., Natick, MA, USA).

In another series the target is T3, PD brain tissues (Homo sapiens, UniProt P37840).
T3 construct: The brain tissue from PD and AD cases was obtained from the Banner Sun Health Research Institute Brain and Body Donation Program; tissue Banner Sun Health Research Institute Brain and Body Donation Program; host or cells: human PD post mortem brain tissue
Put plainly: homologous competitive binding assay of radiotracers, PD tissue. As to conditions: for binding to PD tissues versus AD and control brain tissues: in words. The procedure:
as §1, §2, §3, §4
as §5, with “equation. Bound = (Bmax*[Radioligand])/([Radioligand] + [Unlabeled compound] + Kd) + Bottom by nonlinear regression using GraphPad Prism software (version 4.0), where (Bottom) is nonspecific binding and [Radioligand], [Unlabeled compound], and Kd is expressed in nM” for “equation.”
Production of [ 11C]CH3I followed the reported method. Briefly, [ 11C]CH3I was produced on-site from [ 11C]CO2 using a GE PETtrace MeI Microlab. Up to 1.4 Ci of [ 11C]carbon dioxide was produced from the JSW BC-16/8 cyclotron […]

In series [5] the target is T1, recombinant α-synuclein fibrils. In words: radioactive competitive binding assay with [^3H]BF2846 (Tables 1 and 2: or [^18F]7j with LBD-amplified fibrils). As to conditions: running text b71; fibril type and assay not stated.
Where [6] appears, read: Figure 5, single representative curve, read-out: Kd, LBD amplified fibrils, representative assay.
Where [7] appears, read: homologous competitive binding, average values for 7f (n = 3) and 7j (n = 15), read-out: Kd, LBD-amplified fibrils.
[8] abbreviates: homologous competitive binding, average (n = 4 for 7j), NB = no binding, read-out: Kd, PD tissue.

Consider `C#CCCC1(CCOc2ccc3nc(Nc4ccc(OC)nc4)ccc3c2)N=N1` [TZ-CLX, 6-(2-(3-(But-3-yn-1-yl)-3H-diazirin-3-yl)ethoxy)-N-(6-methoxypyridin-3-yl)quinolin-2-amine], for which, in series [1], the “binding site on α-synuclein fibrils by photo-crosslinking” value is “significant selectivity for the C-terminal binding sites of α-synuclein fibrils”.

One may read the Kd as the concentration at which binding is half-saturated. For the molecule `COc1ccc(Nc2ccc3cc(O[11CH3])ccc3n2)cn1` [[^11C]7f], the Kd in series [2] (setting [6]) is 11 nM; in series [2] (setting [7]) it was 15.5 ± 4.8 nM; in series [3], 62.7 ± 68.8 nM. Moreover, the “blood–brain barrier penetration” value in series [4] is reported as “penetrated the BBB well”. Besides, in series [4], the brain washout kinetics entry is reported as “rapid washout from all brain regions”. Moreover, the “time of peak brain uptake post-injection” value in series [4] (n = 1 per tracer) turned out to be 3 min.

For the molecule `[11CH3]Oc1ccc(Nc2ccc3cc(OC/C=C/I)ccc3n2)cn1` [[^11C]8i], the “binding to PD tissues versus AD and control brain tissues” value at PD brain tissues is “potent selectivity for PD brain tissues over AD and control tissues”. Further, in series [4] (3 min post-injection, n = 1 per tracer), the “initial brain uptake, standardized uptake value (SUV)” value is listed as “about 3 g/mL”. In series [4], the “blood–brain barrier penetration” value was “penetrated the BBB very well” and the brain washout kinetics entry is “slow”. In series [4] (washout kinetics, n = 1), the “brain uptake ratio from 3 min to 120 min” value was “about 1.5”. Further, the Kd in series [5] was 5 nM.

As to `COc1ccc(Nc2ccc3cc(OCC[18F])ccc3n2)cn1` [[^18F]7j], the Kd in series [2] (setting [6]) came to 26 nM; in series [2] (setting [7]) it was 21 ± 8.7 nM; at PD brain tissues (Figure 5, single representative curve, read-out: Kd, PD tissue, representative assay), 3.6 nM; on PD brain tissues (setting [8]), 19.5 ± 15.5 nM. In series [3], the “Kd, AD tissue” value was “no binding”. Also, in series [4], the “blood–brain barrier penetration” value was “penetrated the BBB well”. The brain washout kinetics result in series [4] is reported as “rapid washout from all brain regions”. Also, the “time of peak brain uptake post-injection” value in series [4] (n = 1 per tracer) is given as 3 min.

`COc1ccc(Nc2ccc3cc(OC/C=C/[125I])ccc3n2)cn1` [[^125I]8i]: the dissociation constant (Kd) was 5 nM and 4.8 nM in series [2] (setting [7]); 5 nM on PD brain tissues (setting [8]); 0.61 nM at PD brain tissues (two-site binding, read-out: Kd, high affinity binding site, PD tissues). Moreover, the “binding to PD tissues versus AD and control brain tissues” value on PD brain tissues was “selective for PD tissues versus AD or control tissues; also recorded: very potent for PD tissues but not for control and AD brain tissues”. Also, the “Bmax, high affinity binding site, PD tissues” value on PD brain tissues (two-site binding) was found to be 50 nM. The “Bmax, low affinity binding site, PD tissues” value at PD brain tissues (two-site binding) came out at 12 µM.
